Data: ChEMBL document CHEMBL1201862, “PubChem BioAssay data set” (2004)
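Protocol summary: plate cells (96-well), add compound at 5 concentrations, incubate 48 h, interpolate endpoints linearly. The concentration for 50% growth inhibition is given as GI50.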 Calls of active or inactive are those of the source. Rule as the data show it: active = GI50 up to about 1.1 µM and inactive = higher.

What was measured:
Test in all cases: DTP human tumour cell line panel, 48 h
786-0 = test system: 786-0
A549 = test system: A549
ACHN = test system: ACHN
CCRF-CEM = test system: CCRF-CEM
COLO 205 = test system: COLO 205
DLD-1 = test system: DLD-1
DMS-273 = test system: DMS-273
EKVX = test system: EKVX
HCC 2998 = test system: HCC 2998
HCT-116 = test system: HCT-116
HCT-15 = test system: HCT-15
HL-60 = test system: HL-60
HOP-62 = test system: HOP-62
HT-29 = test system: HT-29
IGROV-1 = test system: IGROV-1
K562 = test system: K562
KM-20L2 = test system: KM-20L2
KM12 = test system: KM12
LOX IMVI = test system: LOX IMVI
LXFL 529 = test system: LXFL 529
M14 = test system: M14
M19-MEL = test system: M19-MEL
MOLT-4 = test system: MOLT-4
NCI-H226 = test system: NCI-H226
NCI-H23 = test system: NCI-H23
NCI-H460 = test system: NCI-H460
NCI-H522 = test system: NCI-H522
OVCAR-3 = test system: OVCAR-3
OVCAR-4 = test system: OVCAR-4
OVCAR-5 = test system: OVCAR-5
OVCAR-8 = test system: OVCAR-8
RXF 393 = test system: RXF 393
RXF 631 = test system: RXF 631
SF-268 = test system: SF-268
SF-295 = test system: SF-295
SF-539 = test system: SF-539
SK-MEL-28 = test system: SK-MEL-28
SK-MEL-2 = test system: SK-MEL-2
SK-MEL-5 = test system: SK-MEL-5
SN12C = test system: SN12C
SNB-19 = test system: SNB-19
SNB-75 = test system: SNB-75
SNB-78 = test system: SNB-78
SR = test system: SR
SW-620 = test system: SW-620
TK-10 = test system: TK-10
U-251 = test system: U-251
UACC-62 = test system: UACC-62
XF498 = test system: XF498
A498 = test system: A498
CAKI-1 = test system: CAKI-1
DMS-114 = test system: DMS-114
HOP-18 = test system: HOP-18
HOP-92 = test system: HOP-92
Malme-3M = test system: Malme-3M
RPMI-8226 = test system: RPMI-8226
SK-OV-3 = test system: SK-OV-3
UACC-257 = test system: UACC-257
UO-31 = test system: UO-31

Q: Which GI50 (786-0) does the source give for `COc1ccc2cc1Oc1ccc(cc1)CC1c3cc4c(cc3CCN1C)Oc1c(OC)cc3c(c1O4)C(C2)N(C)CC3` (configuration not stated) here?
A: 7.66 µM (inactive)

Q: And the GI50 (A549)?
A: 4.71 µM (inactive)

Q: What about the GI50 (ACHN) of the same compound?
A: 4.78 µM (inactive)

Q: What about the GI50 (CCRF-CEM) of the same compound?
A: 1.32 µM (inactive)

Q: And the GI50 (COLO 205)?
A: 1.43 µM (inactive)

Q: What about the GI50 (DLD-1) of the same compound?
A: 2.96 µM (inactive)

Q: And the GI50 (DMS-273)?
A: 1.63 µM (inactive)

Q: And the GI50 (EKVX)?
A: 9.79 µM (inactive)

Q: And the GI50 (HCC 2998)?
A: 3.05 µM (inactive)

Q: What about the GI50 (HCT-116) of the same compound?
A: 1.7 µM (inactive)

Q: What about the GI50 (HCT-15) of the same compound?
A: 2.42 µM

Q: And the GI50 (HL-60)?
A: 1.96 µM (inactive)

Q: What about the GI50 (HOP-62) of the same compound?
A: 12.6 µM (inactive)

Q: And the GI50 (HT-29)?
A: 1.81 µM (inactive)

Q: What about the GI50 (IGROV-1) of the same compound?
A: > 10 µM (inactive)

Q: What about the GI50 (K562) of the same compound?
A: 1.75 µM (inactive)

Q: What about the GI50 (KM-20L2) of the same compound?
A: 2.55 µM (inactive)

Q: What about the GI50 (KM12) of the same compound?
A: 2.11 µM (inactive)

Q: What about the GI50 (LOX IMVI) of the same compound?
A: 1.46 µM (inactive)

Q: What about the GI50 (LXFL 529) of the same compound?
A: 2 µM (inactive)

Q: What about the GI50 (M14) of the same compound?
A: 1.64 µM (inactive)

Q: What about the GI50 (M19-MEL) of the same compound?
A: 4.01 µM (inactive)

Q: And the GI50 (MOLT-4)?
A: 1.44 µM (inactive)

Q: And the GI50 (NCI-H226)?
A: 1.72 µM (inactive)

Q: What about the GI50 (NCI-H23) of the same compound?
A: 4.26 µM (inactive)

Q: And the GI50 (NCI-H460)?
A: 1.76 µM (inactive)

Q: And the GI50 (NCI-H522)?
A: 2.11 µM (inactive)

Q: What about the GI50 (OVCAR-3) of the same compound?
A: 5.81 µM (inactive)

Q: What about the GI50 (OVCAR-4) of the same compound?
A: 1.47 µM (inactive)

Q: What about the GI50 (OVCAR-5) of the same compound?
A: 13.6 µM (inactive)

Q: What about the GI50 (OVCAR-8) of the same compound?
A: 2.12 µM (inactive)

Q: And the GI50 (RXF 393)?
A: 1.64 µM (inactive)

Q: And the GI50 (RXF 631)?
A: 4.99 µM (inactive)

Q: What about the GI50 (SF-268) of the same compound?
A: 2.77 µM (inactive)

Q: What about the GI50 (SF-295) of the same compound?
A: 1.98 µM (inactive)

Q: What about the GI50 (SF-539) of the same compound?
A: 2.13 µM (inactive)

Q: What about the GI50 (SK-MEL-28) of the same compound?
A: 1.49 µM (inactive)

Q: And the GI50 (SK-MEL-2)?
A: 2.8 µM (inactive)

Q: What about the GI50 (SK-MEL-5) of the same compound?
A: 8.57 µM (inactive)

Q: What about the GI50 (SN12C) of the same compound?
A: 1.94 µM (inactive)

Q: What about the GI50 (SNB-19) of the same compound?
A: 3.86 µM (inactive)

Q: What about the GI50 (SNB-75) of the same compound?
A: 2.56 µM (inactive)

Q: What about the GI50 (SNB-78) of the same compound?
A: 17.6 µM (inactive)

Q: And the GI50 (SR)?
A: 1.53 µM (inactive)

Q: What about the GI50 (SW-620) of the same compound?
A: 1.69 µM (inactive)

Q: What about the GI50 (TK-10) of the same compound?
A: 15.6 µM (inactive)

Q: What about the GI50 (U-251) of the same compound?
A: 2.26 µM (inactive)

Q: And the GI50 (UACC-62)?
A: 3.21 µM (inactive)

Q: And the GI50 (XF498)?
A: 1.94 µM (inactive)

Q: What does the source list for `CO[C@H]1CC[C@]2(C)C3=CC[C@@]4(C)C(CC[C@@H]4C(C)CC[C@@H](C)C(C)C)C(=CCC2C1)O3` (some centres not stated)?
A: GI50 (786-0): > 25 µM (inactive); GI50 (A498): > 25 µM (inactive); GI50 (A549): > 25 µM (inactive); GI50 (ACHN): > 25 µM (inactive); GI50 (CAKI-1): 10.2 µM (inactive); GI50 (CCRF-CEM): > 25 µM (inactive); GI50 (COLO 205): > 25 µM (inactive); GI50 (DLD-1): > 25 µM (inactive); GI50 (DMS-114): > 25 µM (inactive); GI50 (DMS-273): > 25 µM (inactive); GI50 (EKVX): > 25 µM (inactive); GI50 (HCC 2998): > 25 µM (inactive); GI50 (HCT-116): > 25 µM (inactive); GI50 (HCT-15): > 25 µM; GI50 (HL-60): > 25 µM (inactive); GI50 (HOP-18): > 25 µM (inactive); GI50 (HOP-62): > 25 µM (inactive); GI50 (HOP-92): > 22.7 µM (inactive); GI50 (HT-29): > 25 µM (inactive); GI50 (IGROV-1): > 25 µM (inactive); GI50 (K562): > 25 µM (inactive); GI50 (KM-20L2): > 25 µM (inactive); GI50 (KM12): > 25 µM (inactive); GI50 (LOX IMVI): > 25 µM (inactive); GI50 (LXFL 529): > 25 µM (inactive); GI50 (M14): > 25 µM (inactive); GI50 (M19-MEL): > 25 µM (inactive); GI50 (MOLT-4): > 25 µM (inactive); GI50 (Malme-3M): > 25 µM (inactive); GI50 (NCI-H226): > 16.5 µM (inactive); GI50 (NCI-H23): > 7.91 µM (inactive); GI50 (NCI-H460): > 25 µM (inactive); GI50 (NCI-H522): > 25 µM (inactive); GI50 (OVCAR-3): > 25 µM (inactive); GI50 (OVCAR-4): > 25 µM (inactive); GI50 (OVCAR-5): > 25 µM (inactive); GI50 (OVCAR-8): > 25 µM (inactive); GI50 (RPMI-8226): > 25 µM (inactive); GI50 (RXF 393): > 25 µM (inactive); GI50 (SF-268): > 25 µM (inactive); GI50 (SF-295): > 25 µM (inactive); GI50 (SF-539): > 25 µM (inactive); GI50 (SK-MEL-28): > 25 µM (inactive); GI50 (SK-MEL-2): > 25 µM (inactive); GI50 (SK-MEL-5): > 25 µM (inactive); GI50 (SK-OV-3): > 25 µM (inactive); GI50 (SN12C): > 25 µM (inactive); GI50 (SNB-19): > 25 µM (inactive); GI50 (SNB-75): > 25 µM (inactive); GI50 (SNB-78): > 25 µM (inactive); GI50 (SR): > 25 µM (inactive); GI50 (SW-620): > 25 µM (inactive); GI50 (TK-10): > 25 µM (inactive); GI50 (U-251): > 25 µM (inactive); GI50 (UACC-257): > 25 µM (inactive); GI50 (UACC-62): > 25 µM (inactive); GI50 (UO-31): > 25 µM (inactive); GI50 (XF498): > 25 µM (inactive)
